The NIST ThermoML archive (doi:10.1016/j.tca.2019.02.007)
Numbers after ± are expanded uncertainties.

Experiments:
[1] = Molar enthalpy of transition or fusion; details: DSC
[2] = for Normal melting temperature: DTA

Structure (SMILES) | Molar enthalpy of transition or fusion ([1]; Crystal) | Normal melting temperature ([2]; Crystal) | Molar enthalpy of transition or fusion ([1]; Crystal 1) | Molar enthalpy of transition or fusion ([1]; Crystal 2) | Normal melting temperature ([2]; Crystal 1) | Triple point temperature ([2]; Crystal 2, DSC)
CC(=O)Oc1ccccc1C(=O)O [2-acetoxybenzoic acid] | 8.08 ± 0.574 kcal/mol | 139.2 ± 1.5 °C | – | – | – | –
O=C(O)c1ccccc1 [benzoic acid] | 4.33 ± 0.131 kcal/mol | 122.5 ± 0.5 °C | – | – | – | –
Cn1c(=O)c2c(ncn2C)n(C)c1=O [caffeine] | – | – | 5 ± 0.526 kcal/mol | 0.954 ± 0.0741 kcal/mol | 235.2 ± 1.3 °C | 420.3 ± 1.1 K
